Data reported in ChEMBL document CHEMBL3885881, “DrugMatrix”.

Organism: Rattus norvegicus
Test: DrugMatrix - Regimen: Daily Repeat
Format: toxicity, organism-based, Sprague-Dawley
Set-up: regimen Daily Repeat, gender Male, age 6-8 weeks
Details: in vivo, po, route oral GAVAGE, vehicle 100 % WATER; for ABSOLUTE BASOPHIL / ABSOLUTE EOSINOPHIL / ABSOLUTE LYMPHOCYTE / ABSOLUTE MONOCYTE / ABSOLUTE SEGMENTED NEUTROPHIL / BASOPHIL / EOSINOPHIL / ERYTHROCYTE COUNT / HEMATOCRIT / HEMOGLOBIN / LEUKOCYTE COUNT / LYMPHOCYTE / MEAN CORPUSCULAR HEMOGLOBIN / MEAN CORPUSCULAR HEMOGLOBIN CONCENTRATION / MEAN CORPUSCULAR VOLUME / MONOCYTE / NEUTROPHIL / NUCLEATED RED BLOOD CELLS / PLATELET COUNT: tissue Blood; for ALANINE AMINOTRANSFERASE / ALBUMIN / ALKALINE PHOSPHATASE / ASPARTATE AMINOTRANSFERASE / BLOOD UREA NITROGEN / CARBON DIOXIDE / CHLORIDE / CHOLESTEROL / CREATINE PHOSPHOKINASE / CREATININE / GLUCOSE / LACTATE DEHYDROGENASE / LIPASE / PHOSPHORUS / POTASSIUM / SODIUM / TOTAL BILIRUBIN / TOTAL PROTEIN / URIC ACID: tissue Plasma
[1] = 120 mg/kg, 72 h, dose level Low, time 3 day
[2] = 120 mg/kg, 120 h, dose level Low, time 5 day
[3] = 1200 mg/kg, 72 h, dose level High, time 3 day
[4] = 1200 mg/kg, 120 h, dose level High, time 5 day

Structure (SMILES): O=C(O)CNCP(=O)(O)O [GLYPHOSATE]
- ABSOLUTE BASOPHIL [1]: 0 CELLS/uL
- ABSOLUTE EOSINOPHIL [1]: 153 CELLS/uL
- ABSOLUTE LYMPHOCYTE [1]: 11957 CELLS/uL
- ABSOLUTE MONOCYTE [1]: 0 CELLS/uL
- ABSOLUTE SEGMENTED NEUTROPHIL [1]: 890 CELLS/uL
- BASOPHIL [1]: 0%
- EOSINOPHIL [1]: 1.33%
- ERYTHROCYTE COUNT [1]: 5.56 x10E6/uL
- HEMATOCRIT [1]: 35.93%
- HEMOGLOBIN [1]: 13.4 G/DL
- LEUKOCYTE COUNT [1]: 13 x10E3/uL
- LYMPHOCYTE [1]: 92%
- MEAN CORPUSCULAR HEMOGLOBIN [1]: 24.1 pg
- MEAN CORPUSCULAR HEMOGLOBIN CONCENTRATION [1]: 37.3 G/DL
- MEAN CORPUSCULAR VOLUME [1]: 64.57 fL
- MONOCYTE [1]: 0%
- NEUTROPHIL [1]: 6.67%
- NUCLEATED RED BLOOD CELLS [1]: 0 /100WBC
- PLATELET COUNT [1]: 1067 x10E3/uL
- ALANINE AMINOTRANSFERASE [1]: 56 u/L
- ALBUMIN [1]: 4.13 G/DL
- ALKALINE PHOSPHATASE [1]: 286.67 u/L
- ASPARTATE AMINOTRANSFERASE [1]: 100.67 u/L
- BLOOD UREA NITROGEN [1]: 15 mg/dL
- CARBON DIOXIDE [1]: 24.67 mmol/L
- CHLORIDE [1]: 103.33 MEQ/L
- CHOLESTEROL [1]: 75 mg/dL
- CREATINE PHOSPHOKINASE [1]: 1135.33 u/L
- CREATININE [1]: 0.29 mg/dL
- GLUCOSE [1]: 198.67 mg/dL
- LACTATE DEHYDROGENASE [1]: 150.67 u/L
- LIPASE [1]: 8 u/L
- PHOSPHORUS [1]: 14.7 mg/dL
- POTASSIUM [1]: 6.43 MEQ/L
- SODIUM [1]: 145.93 MEQ/L
- TOTAL BILIRUBIN [1]: 0.27 mg/dL
- TOTAL PROTEIN [1]: 5.87 G/DL
- URIC ACID [1]: 1.73 mg/dL
- ABSOLUTE BASOPHIL [2]: 0 CELLS/uL
- ABSOLUTE EOSINOPHIL [2]: 327.33 CELLS/uL
- ABSOLUTE LYMPHOCYTE [2]: 13510 CELLS/uL
- ABSOLUTE MONOCYTE [2]: 0 CELLS/uL
- ABSOLUTE SEGMENTED NEUTROPHIL [2]: 1496 CELLS/uL
- BASOPHIL [2]: 0%
- EOSINOPHIL [2]: 2%
- ERYTHROCYTE COUNT [2]: 5.7 x10E6/uL
- HEMATOCRIT [2]: 34.73%
- HEMOGLOBIN [2]: 13.27 G/DL
- LEUKOCYTE COUNT [2]: 15.33 x10E3/uL
- LYMPHOCYTE [2]: 88.33%
- MEAN CORPUSCULAR HEMOGLOBIN [2]: 23.27 pg
- MEAN CORPUSCULAR HEMOGLOBIN CONCENTRATION [2]: 38.23 G/DL
- MEAN CORPUSCULAR VOLUME [2]: 60.93 fL
- MONOCYTE [2]: 0%
- NEUTROPHIL [2]: 9.67%
- NUCLEATED RED BLOOD CELLS [2]: 0 /100WBC
- PLATELET COUNT [2]: 1299.33 x10E3/uL
- ALANINE AMINOTRANSFERASE [2]: 51.33 u/L
- ALBUMIN [2]: 4.47 G/DL
- ALKALINE PHOSPHATASE [2]: 337.33 u/L
- ASPARTATE AMINOTRANSFERASE [2]: 87.33 u/L
- BLOOD UREA NITROGEN [2]: 15.67 mg/dL
- CARBON DIOXIDE [2]: 25 mmol/L
- CHLORIDE [2]: 103.67 MEQ/L
- CHOLESTEROL [2]: 64 mg/dL
- CREATINE PHOSPHOKINASE [2]: 252 u/L
- CREATININE [2]: 0.19 mg/dL
- GLUCOSE [2]: 168.33 mg/dL
- LACTATE DEHYDROGENASE [2]: 300.67 u/L
- LIPASE [2]: 8.67 u/L
- PHOSPHORUS [2]: 12.53 mg/dL
- POTASSIUM [2]: 6.55 MEQ/L
- SODIUM [2]: 145.77 MEQ/L
- TOTAL BILIRUBIN [2]: 0.13 mg/dL
- TOTAL PROTEIN [2]: 6.1 G/DL
- URIC ACID [2]: 1.9 mg/dL
- ABSOLUTE BASOPHIL [3]: 0 CELLS/uL
- ABSOLUTE EOSINOPHIL [3]: 430 CELLS/uL
- ABSOLUTE LYMPHOCYTE [3]: 12770 CELLS/uL
- ABSOLUTE MONOCYTE [3]: 0 CELLS/uL
- ABSOLUTE SEGMENTED NEUTROPHIL [3]: 3000 CELLS/uL
- BASOPHIL [3]: 0%
- EOSINOPHIL [3]: 2.67%
- ERYTHROCYTE COUNT [3]: 5.53 x10E6/uL
- HEMATOCRIT [3]: 35%
- HEMOGLOBIN [3]: 13.4 G/DL
- LEUKOCYTE COUNT [3]: 16.2 x10E3/uL
- LYMPHOCYTE [3]: 79.33%
- MEAN CORPUSCULAR HEMOGLOBIN [3]: 24.3 pg
- MEAN CORPUSCULAR HEMOGLOBIN CONCENTRATION [3]: 38.3 G/DL
- MEAN CORPUSCULAR VOLUME [3]: 63.37 fL
- MONOCYTE [3]: 0%
- NEUTROPHIL [3]: 18%
- NUCLEATED RED BLOOD CELLS [3]: 0 /100WBC
- PLATELET COUNT [3]: 1325.33 x10E3/uL
- ALANINE AMINOTRANSFERASE [3]: 51.33 u/L
- ALBUMIN [3]: 4.17 G/DL
- ALKALINE PHOSPHATASE [3]: 418.33 u/L
- ASPARTATE AMINOTRANSFERASE [3]: 78.33 u/L
- BLOOD UREA NITROGEN [3]: 15.33 mg/dL
- CARBON DIOXIDE [3]: 27.33 mmol/L
- CHLORIDE [3]: 101 MEQ/L
- CHOLESTEROL [3]: 60.33 mg/dL
- CREATINE PHOSPHOKINASE [3]: 226.67 u/L
- CREATININE [3]: 0.19 mg/dL
- GLUCOSE [3]: 167 mg/dL
- LACTATE DEHYDROGENASE [3]: 154.67 u/L
- LIPASE [3]: 8.67 u/L
- PHOSPHORUS [3]: 13.27 mg/dL
- POTASSIUM [3]: 6.4 MEQ/L
- SODIUM [3]: 145.67 MEQ/L
- TOTAL BILIRUBIN [3]: 0.1 mg/dL
- TOTAL PROTEIN [3]: 5.83 G/DL
- URIC ACID [3]: 1.47 mg/dL
- ABSOLUTE BASOPHIL [4]: 0 CELLS/uL
- ABSOLUTE EOSINOPHIL [4]: 318.67 CELLS/uL
- ABSOLUTE LYMPHOCYTE [4]: 13433.33 CELLS/uL
- ABSOLUTE MONOCYTE [4]: 0 CELLS/uL
- ABSOLUTE SEGMENTED NEUTROPHIL [4]: 2014.67 CELLS/uL
- BASOPHIL [4]: 0%
- EOSINOPHIL [4]: 2%
- ERYTHROCYTE COUNT [4]: 5.83 x10E6/uL
- HEMATOCRIT [4]: 36%
- HEMOGLOBIN [4]: 13.47 G/DL
- LEUKOCYTE COUNT [4]: 15.77 x10E3/uL
- LYMPHOCYTE [4]: 84.67%
- MEAN CORPUSCULAR HEMOGLOBIN [4]: 23.1 pg
- MEAN CORPUSCULAR HEMOGLOBIN CONCENTRATION [4]: 37.47 G/DL
- MEAN CORPUSCULAR VOLUME [4]: 61.7 fL
- MONOCYTE [4]: 0%
- NEUTROPHIL [4]: 13.33%
- NUCLEATED RED BLOOD CELLS [4]: 0 /100WBC
- PLATELET COUNT [4]: 1271.67 x10E3/uL
- ALANINE AMINOTRANSFERASE [4]: 65.33 u/L
- ALBUMIN [4]: 4.43 G/DL
- ALKALINE PHOSPHATASE [4]: 391.33 u/L
- ASPARTATE AMINOTRANSFERASE [4]: 82.33 u/L
- BLOOD UREA NITROGEN [4]: 16.33 mg/dL
- CARBON DIOXIDE [4]: 27.33 mmol/L
- CHLORIDE [4]: 102.67 MEQ/L
- CHOLESTEROL [4]: 68.67 mg/dL
- CREATINE PHOSPHOKINASE [4]: 204.33 u/L
- CREATININE [4]: 0.15 mg/dL
- GLUCOSE [4]: 177 mg/dL
- LACTATE DEHYDROGENASE [4]: 87 u/L
- LIPASE [4]: 9 u/L
- PHOSPHORUS [4]: 12.33 mg/dL
- POTASSIUM [4]: 6.56 MEQ/L
- SODIUM [4]: 147.4 MEQ/L
- TOTAL BILIRUBIN [4]: 0.13 mg/dL
- TOTAL PROTEIN [4]: 6.03 G/DL
- URIC ACID [4]: 1.9 mg/dL
